For data set [1], the system named is NF-κB/AP-1 reporter activity in THP-1Blue cells. Nature of the data set: LPS-induced NF-κB/AP-1 alkaline phosphatase reporter assay. The settings on record: for inhibition of LPS-induced NF-κB/AP-1 activity: concentrations up to 50 µM. It counts as cell-based, human.
The subject of data set [2] is IL-6 production by MonoMac-6 cells. The data set can be described thus: LPS-induced IL-6 production. It counts as cell-based, human. The settings on record: for inhibition of LPS-induced IL-6 production: concentrations up to 50 µM; for IL-6 IC50: MonoMac-6 cells, 250 ng/ml LPS, 24 h, N.A. = no inhibition at concentrations <40 µM.
The target in the next data set is TRKA (Homo sapiens, UniProt P04629). The note with it: ref [29], [30]; cited from earlier work.
The next data set concerns the target JNK2 (Homo sapiens, UniProt P45984). The data set can be described thus: KINOMEscan competition binding, JNK2. The note with it: N.A. = no inhibition at concentrations <40 µM.
The next data set deals with JNK3 (Homo sapiens, UniProt P53779). The data set can be described thus: KINOMEscan competition binding, JNK3. The settings on record: N.A. = no inhibition at concentrations <40 µM.
The nature of another data set: Solubility in DMSO. It is filed as physicochemical. The note with it: organic solvent or mixture.
Data set [3] deals with c-Jun phosphorylation in MonoMac-6 cells. Nature of the data set: c-Jun. It counts as cell-based, human. The settings on record: 30 min pretreatment, LPS 250 ng/ml 30 min.
[4] abbreviates: THP-1Blue cells, 250 ng/ml LPS, 24 h, N.A. = no inhibition at concentrations <40 µM.

In brackets after ≈: the same amount, converted by molar mass.

TRKA, sequence (P04629 33-796): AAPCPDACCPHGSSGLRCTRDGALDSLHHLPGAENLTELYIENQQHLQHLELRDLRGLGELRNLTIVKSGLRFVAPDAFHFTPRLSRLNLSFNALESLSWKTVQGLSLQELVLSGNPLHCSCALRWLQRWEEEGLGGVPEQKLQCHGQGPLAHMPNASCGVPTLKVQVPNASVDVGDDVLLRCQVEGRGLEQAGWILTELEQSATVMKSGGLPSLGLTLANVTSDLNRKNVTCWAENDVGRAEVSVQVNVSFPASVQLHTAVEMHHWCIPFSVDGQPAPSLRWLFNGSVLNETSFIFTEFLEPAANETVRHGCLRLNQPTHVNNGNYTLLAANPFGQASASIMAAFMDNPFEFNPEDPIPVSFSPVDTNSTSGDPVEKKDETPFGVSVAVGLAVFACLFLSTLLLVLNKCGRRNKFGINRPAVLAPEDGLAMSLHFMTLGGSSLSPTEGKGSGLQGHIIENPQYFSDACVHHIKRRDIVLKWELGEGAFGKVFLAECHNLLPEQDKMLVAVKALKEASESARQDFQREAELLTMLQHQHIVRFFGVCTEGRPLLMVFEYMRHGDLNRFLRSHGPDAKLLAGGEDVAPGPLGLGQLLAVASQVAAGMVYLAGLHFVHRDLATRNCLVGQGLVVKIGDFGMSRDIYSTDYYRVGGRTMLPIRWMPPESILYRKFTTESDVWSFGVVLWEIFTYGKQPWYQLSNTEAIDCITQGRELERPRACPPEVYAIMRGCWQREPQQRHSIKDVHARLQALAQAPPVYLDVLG
JNK2, sequence (P45984 whole entry): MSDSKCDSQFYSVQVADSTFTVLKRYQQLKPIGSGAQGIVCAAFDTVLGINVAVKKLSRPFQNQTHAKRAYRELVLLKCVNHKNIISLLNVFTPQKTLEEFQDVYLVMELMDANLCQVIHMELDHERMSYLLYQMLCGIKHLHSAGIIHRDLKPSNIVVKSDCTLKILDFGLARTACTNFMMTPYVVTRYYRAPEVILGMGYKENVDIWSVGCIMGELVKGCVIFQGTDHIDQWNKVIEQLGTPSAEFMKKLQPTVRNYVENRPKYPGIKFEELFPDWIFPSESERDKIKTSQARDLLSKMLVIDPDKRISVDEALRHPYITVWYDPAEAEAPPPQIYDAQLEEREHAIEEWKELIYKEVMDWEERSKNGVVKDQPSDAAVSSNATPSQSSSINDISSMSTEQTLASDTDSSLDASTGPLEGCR
JNK3, sequence (P53779 whole entry): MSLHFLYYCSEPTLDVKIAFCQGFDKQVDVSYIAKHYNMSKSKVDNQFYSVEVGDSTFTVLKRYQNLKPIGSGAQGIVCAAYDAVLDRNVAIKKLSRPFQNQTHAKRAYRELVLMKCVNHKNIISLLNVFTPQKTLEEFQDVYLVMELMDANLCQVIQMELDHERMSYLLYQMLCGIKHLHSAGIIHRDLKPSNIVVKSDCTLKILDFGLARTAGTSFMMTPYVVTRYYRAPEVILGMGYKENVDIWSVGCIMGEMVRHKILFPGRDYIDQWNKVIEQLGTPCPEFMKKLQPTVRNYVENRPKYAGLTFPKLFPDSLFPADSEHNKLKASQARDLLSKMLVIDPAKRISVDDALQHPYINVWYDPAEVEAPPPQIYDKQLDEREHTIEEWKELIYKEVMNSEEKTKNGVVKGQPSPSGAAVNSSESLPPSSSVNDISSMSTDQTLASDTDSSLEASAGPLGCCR

Turning to `O=C1c2ccccc2-c2nc3ccncc3nc21` [compound 5, 10H-Indeno[1,2-b]pyrido[3,4-e]pyrazin-10-one], in data set [1], the “inhibition of LPS-induced NF-κB/AP-1 activity” value is given as “did not inhibit”. For the same compound, the “inhibition of LPS-induced IL-6 production” value in data set [2] is “did not inhibit”. On to `[Na+].[O-]/N=C1/c2ccccc2-c2nc3c(Cl)cc(Cl)cc3nc21` [6b, 6,8-Dichloro-11H-indeno[2,3-b]quinoxalin-11-one oxime], for which, in data set [1] (setting [4]), the “NF-κB/AP-1 IC50” value is on record as “did not inhibit”. Further, the “IL-6 IC50” value in data set [2] is given as “did not inhibit”. With `O=C(O/N=C1\c2ccccc2-c2nc3ccccc3nc21)c1ccco1` [IQ-3], on TRKA, the “binding to TRK-A” value is given as “did not bind”. On to `O=C1c2ccccc2-n2c1nc1ccccc1c2=O` [Trp, tryptanthrin, reference compound], for which, at JNK2, the “JNK2 Kd” value was “inactive”. In addition, the “inhibition of LPS-induced NF-κB/AP-1 activity” value in data set [1] is “did not inhibit”. For the same compound, in data set [2], the “inhibition of LPS-induced IL-6 production” value is reported as “did not inhibit”. On JNK3, the “JNK3 Kd” value was “inactive”. On to `[Na+].[O-]/N=C1/c2ccccc2-c2nc3ccc(C(F)(F)F)cc3nc21` [6h, 8-Trifluoromethyl-11H-indeno[2,3-b]quinoxalin-11-one oxime], for which, in data set [1] (setting [4]), the “NF-κB/AP-1 IC50” value was “did not inhibit”. The “IL-6 IC50” value in data set [2] is reported as “did not inhibit”. On to `O/N=C1\c2ccccc2-c2nc3ccccc3nc21` [IQ-1, 11H-indeno[1,2-b]quinoxalin-11-one oxime], for which the solubility in “Solubility in DMSO” was around 10 mM (≈ 2470 µg/mL). Further, the “binding to TRK-A” value at TRKA was “did not bind”.

As for `O=C1c2ccccc2-c2nc3ncccc3nc21` [3a, 6H-Indeno[1,2-b]pyrido[3,2-e]pyrazin-6-one], the “inhibition of LPS-induced NF-κB/AP-1 activity” value in data set [1] is “did not inhibit”. For the same compound, in data set [2], the “inhibition of LPS-induced IL-6 production” value was “did not inhibit”. For “anthra[1–9-cd]pyrazol-6(2H)-one [SP600125, reference compound]”, the IC50 in data set [1] (read-out: NF-κB/AP-1 IC50, THP-1Blue cells, 250 ng/ml LPS, 24 h, N.A. = no inhibition at concentrations <40 µM) amounted to 3.4 ± 0.5 µM. `CCOC(=O)CO/N=C1\c2ccccc2-c2nc3ccccc3nc21` [10c, 11H-Indeno[1,2-b]quinoxalin-11-one O-(O-ethylcarboxymethyl) oxime]: the “inhibition of c-Jun phosphorylation” value in data set [3] was “inhibited c-Jun phosphorylation”.

These data come from article PMC6261293 (European journal of medicinal chemistry, 2018).
